# Source: US20160220500A1, “Targeting Intracellular Copper Ions for Inhibiting Angiogenesis Using Nanoparticles of Ternary Inorganic Metal Sulfide M1M2S4 (M1, independently, is Mg, Ca, Mn, Fe, or Zn; M2 = Mo or W) Compounds to Treat Metastatic Cancer” (KENT STATE UNIVERSITY, priority 2014, published 2016)
# System: HuVEC cells
# Assay: VEGF-induced tube formation assay
# Assay type: cell-based, human
# Settings: VEGF (50 ng/ml), sulforaphane 5 uM
# Description: The tube formation assay is an in vitro a model of angiogenesis commonly used to measure the ability of endothelial cells to form “tubes” (i.e. three-dimensional structures that resemble vessel walls). Tube formation studies were conducted in a 96-well plate format using an in vitro angiogenesis assay kit from Trevigen Inc. (Trevigen, Gaithersburg, Md.). Prior to tube formation assay, Huvec cells were starved overnight in EGM-2 basal medium in the culture dish. […] The cells were harvested and counted, and a single cell suspension at 1×10^6 cells/ml was prepared. […] Tube formation was visualized using a fluorescence microscope (485 nm excitation/520 nm emission) at 200× total magnification. Numbers of branch points were counted for each of six randomly chosen fields, and then averaged for each condition. […] Statistical significance was determined using student t-test.
# The tube formation was quantified and expressed as mean number of branching points per viewing field as shown in FIG. 5F for the high dose treatment using nanoparticles of ZnMoS4.
# The Huvec cells were harvested, counted, and diluted in EBM-2 basal medium in the presence (Panels B-E) or absence (Panels A) of VEGF (50 ng/ml) and ZnMoS4 NPs at 50 ng/ml (Panel C) and 10 ng/ml (Panel D). […] F. Quantitative assessment of the tube formation was done by counting the average number of branch points per viewing field. […]
compound,measurement,value
C[S+]([O-])CCCCN=C=S (stereo not shown) [sulforaphane],tube formation,prevented tube formation
